Each block holds one molecule with its values, some of them ahead of it.
Columns and labels:
[1] = biological target: T1, human invariant Vα24^+/Vβ11^+ TCR binding to hCD1d-lipid complex (Homo sapiens, UniProt P15813); experiment: Surface plasmon resonance (Biacore) of soluble iNKT TCR binding to hCD1d monomers loaded with analogs; details: for Kd: equilibrium binding, read-out: Kd of the TCR binding to the monomer; for koff: kinetic measurement, read-out: rate of dissociation (Koff) between the TCR and the monomer
T1 construct: soluble human CD1d molecules; made in house
Experimental: Affinity and kinetics of iNKT TCR binding to hCD1d complexed with α-GalCer or OCH. Increasing concentrations from 0.4 μM to 194 μM (two-fold dilution) of iNKT TCR were injected for 5 seconds over the indicated hCD1d-GSL complexes. The binding responses of 5 concentrations are shown superimposed. The panels on the right show binding response at equilibrium.
The affinities of a soluble NKT cell TCR for human CD1d molecules refolded with different analogs of α-GalCer were measured. Equilibrium binding and kinetic measurements respectively were made for α-GalCer (A and B), threitolceramide (C and D), 4S-threitolceramide (E and F), 4R-threitolceramide (G and H). The Kd values (μM) were calculated from equilibrium binding. The Kon values shown were calculated from Koff and Kd.
We then assessed whether the length of the acyl and sphingosine chains could affect the affinity of iNKT TCR binding to glycolipid-CD1d complex. We refolded Vα24 and Vβ11 chains of the iNKT TCR as previously described (Gadola, Koch et al, J Exp Med, 2006, 203; 699-710) and used the purified and refolded iNKT TCR in surface plasmon resonance studies against immobilized biotinylated CD1d monomers loaded with either α-GalCer or OCH.
To characterize the affinity of analogs of α-GalCer, biotinylated hCD1d monomers were generated using previously described protocols (Karadimitris, Gadola et al, Proc Natl Acad Sci USA, 2001, 98; 3294-8) bound to the different analogs. Surface plasmon resonance (Biacore) analysis was performed using a soluble disulphide-linked human invariant Vα24^+/Vβ11^+ TCR (Gadola, Koch et al, J Exp Med, 2006, 203; 699-710) to measure the equilibrium dissociation constants (Kd) of binding of the TCR to different monomers (FIG. 3).

human DC = experiment: DC maturation in co-culture of human DC and iNKT cells (flow cytometry CD83, CD86, CD38); type: cell-based
Experimental: (§1) Different analogs of α-GalCer as indicated or LPS were added to co-cultures of human DC and iNKT cells. (A) Maturation of the DC was assessed after 40 h, gating on CD11c positive cells. Histograms indicate the CD83 and CD86 profiles of DC from different treatments; the percentages indicate the percentage of CD83hi mature DC and the numbers in parenthesis, the mean fluorescence intensity of the population contained within the labeled gate. DC and iNKT cells were co-cultured in the presence of different analogs of α-GalCer for 24 hours. Supernatants were analyzed using ELISA for the presence of (B) IL-12p40 released by the DC and (C) IFN-γ from the iNKT cells. […] Cells were co-cultured in the presence of the indicated concentration of analog and the percentages of DC with increased CD83/CD80 are shown. […] Viability of α-GalCer or analog-pulsed DC was assessed after 40 h co-culture in the presence of iNKT cells by flow cytometry. Cells were stained with propidium iodide and the percentage of live CD11c gated cells remaining in the culture are shown.
(§2) Human monocyte-derived DC were pulsed with 150 ng of different inositol analogs and co-cultured with iNKT cells for 24 h. […] Numbers indicate the mean fluorescence intensity of the histogram gated on CD11c^+ cells.
Immature human DC were cultured in the presence of a human iNKT cell clone with or without analogs or vehicle at different concentrations.
To compare the functions of high affinity α-GalCer, intermediate affinity threitolceramide with the known, low affinity analog OCH, the three compounds were titrated onto DC and used to present to iNKT cells. Maturation of DC and DC viability were examined after 48 h.

iNKT cell clone = experiment: Cytokine release from iNKT cell clone stimulated with analog-pulsed C1R-human CD1d cells; type: cell-based; details: 24 h, titration
Experimental: FIG. 9 Inositol-based α-GalCer derivatives are functional in vitro. Human monocyte-derived DC were pulsed with 150 ng of different inositol analogs and co-cultured with iNKT cells for 24 h. […] Numbers indicate the mean fluorescence intensity of the histogram gated on CD11c^+ cells. 6-Deoxy and 6-Sulfono-myo-inositolceramide induce significant (B) IL-12p40 and (C) IFN-γ production by DC and iNKT cells respectively in the supernatants of co-cultured DC and iNKT cells. […] Release of (D) IFN-g and (E) IL-4 from iNKT cells after 24 h in culture with C1R-human CD1d cells pulsed with α-GalCer, 6-Deoxy- or 6-Sulfono-myo-inositolceramide.
The three inositol compounds were titrated on C1R cells expressing human CD1d and used to stimulate an iNKT cell clone.

[2] = test system: IL-12p40 released by the DC; experiment: IL-12p40 ELISA of supernatants of DC/iNKT co-cultures; type: cell-based, human; details: DC/iNKT co-culture, 24 hours
Experimental: as §1, §2
Release of IL-12p40 (and bioactive p75) by DC is a marker of activation and is thought to play an important role in regulating the profile of the immune response generated in response to those DC (Trinchieri et al, Nat Rev Immunol, 2003, 3; 133-46).

[3] = test system: IFN-γ from the iNKT cells; experiment: IFN-γ ELISA of supernatants of DC/iNKT co-cultures; type: cell-based, human; details: analogs presented by DC
Experimental: as §1, §2

IL-4 and IFN-γ = experiment: Serum cytokines after i.v. injection into mice (ELISA); type: in vivo, C57BL/6 mice
Experimental: C57BL/6 or iNKT^−/− mice were injected i.v. with 1 μg of vehicle, α-GalCer, analog or 25 μg MPL. Twenty hours after injection splenocytes were stained with antibodies against CD11c, B220 and CD86 and analyzed by flow cytometry. (A) Maturation was assessed by the upregulation of CD86 at the cell surface, gating on DC (CD11c^+). Mean fluorescence intensity for each histogram is indicated. These are representative profiles of two independent experiments. 2, 6 and 18-24 h after injection as described, the mice were bled and the serum tested with ELISA for the presence of (B) IL-4 and (C) IFN-γ released in response to the analog.
Stimulation of iNKT cells by α-GalCer in the context of CD1d rapidly induces release of significant levels of a number of cytokines including IFN-γ and IL-4 (Burdin, Brossay et al, J Immunol, 1998, 161; 3271-81), IL-3 and GM-CSF (Leite-de-Moraes, Lisbonne et al, Eur J Immunol, 2002, 32; 1897-904) with other downstream cell-types including DC (Kitamura, Iwakabe et al, J Exp Med, 1999, 189; 1121-8) and NK cells (Carnaud, Lee et al, J Immunol, 1999, 163; 4647-50) being activated.

[4] = test system: antigen-specific CD8^+ T cells; experiment: OVA-specific CD8+ T cells after co-injection with OVA ([…]-Kb tetramer); type: in vivo, C57BL/6 mice; details: 1 μg with 800 μg OVA, 6 days
Experimental: (§3) (A) C57BL/6 mice were co-injected with 1 μg α-GalCer or analog and 800 μg OVA. 6 days later blood samples taken from the tail vein were stained directly ex vivo with fluorescent […]-K^b tetramers and an anti-CD8 antibody and analyzed by flow cytometry. Data are shown as tetramer positive cells as a percentage of CD8^+ cells. (B) 7 days after injection, the mice were challenged in a prophylactic setting with 1×10^6 E.G7-OVA tumour cells s.c. and the size of the tumour monitored over subsequent days.
Previously we, and others have shown that co-injection of model antigens such as OVA (Silk, Hermans et al, J Clin Invest, 2004, 114; 1800-11, Fujii, Shimizu et al, J Exp Med, 2003, 198; 267-79, Hermans, Silk et al, J Immunol, 2003, 171; 5140-7) and β-galactosidase (Silk, Hermans et al, J Clin Invest, 2004, 114; 1800-11) together with α-GalCer induces enhanced CD8^+, CD4^+ T cell and B cell responses. These were effective for therapy against tumour cells expressing the target antigen. The various analogs were co-injected with OVA into wild type mice and 6 days later the blood examined for the presence of antigen-specific CD8^+ T cells using fluorescent K^b-[…] tetramers.

E.G7-OVA tumour cells = experiment: Prophylactic challenge with E.G7-OVA tumour cells after co-injection with OVA; type: in vivo, C57BL/6 mice; details: injected with OVA, challenge 7 days later with 1×10^6 E.G7-OVA s.c.
Experimental: as §3

[5] = test system: human monocyte derived DCs; experiment: Example A: DC maturation markers in human monocyte derived DC with NKT cells (FACS); type: cell-based; details: 100 ng/ml, 36 hours, 10 DC/NKT cell
Experimental: The methodology of Salio, et al., J. Immunol., 167:1188-1197 (2001), incorporated by reference, was followed. In brief, 2×105 human monocyte derived DCs were pulsed with 100 ng/ml of one of Compounds 2, 3, αGal-Cer, or vehicle solution, as a control. For DC pulsing, each of arabinitol ceramide (Compound 1), threitol ceramide (Compound 3), glycerol ceramide (Compound 2) and αGal-Cer was solubilized in vehicle solution (0.5% Tween 20/PBS), and added to the medium of the DC cultures. […] After 36 hours, supernatant was removed from cultures and analyzed for the presence of known DC maturation markers CD83, CD80, CD86, CD25, and CD38, all of which were analyzed via FACS, using well known methods.

p40 form of IL-12 = experiment: Example A: IL-12 p40 ELISA as indication of DC stimulation; type: cell-based, human
OVA specific response = experiment: Example C: OVA specific CTL response in mice injected with OVA and compound (tetramer); type: in vivo; details: 400 μg OVA with 1 μg compound i.v.
Experimental: Subject animals, five mice per group, received an intravenous injection of 400 μg of ovalbumin (OVA) together with 1 μg of one of the compounds of the invention under examination or an equivalent volume of PBS diluted vehicle solution. A subset of mice were injected with 25 μg of the molecule MPL (Sigma-Aldrich; extracted from Salmonella Minnesota) solubilized in PBS.
Following the injections, blood was obtained from lateral tail veins, and PBLs were isolated, using standard methods. The PBLs were then stained, directly, […], with tetrameric, H-2 Kb/OVA 257-264, H-21 Kb complexes, following Palmowski, et al., J. Immunol., 168:4391-4398 (2002), incorporated by reference. The tetramers were prepared in accordance with Whilan, et al., J. Immunol., 163:4342-4348 (1999), incorporated by reference.

[6] = test system: OVA specific IgG antibodies; experiment: Example D: OVA specific IgG antibodies in serum of immunized mice (ELISA); type: in vivo; details: ten days following immunization
Experimental: OVA protein coated ELISA plates, were prepared, using well known methods. Then, blood samples were taken, ten days following immunization, and serum was prepared.
The samples were taken from mice that had been immunized with OVA only, OVA and Compound 1, arabinitol ceramide, OVA and αGal-Cer, or OVA and Compound 2, glycerol ceramide. Additionally, mice were immunized with each of these schedules with MPL added. Serum IgG titers were measured by adding serial dilutions of mouse serum were detected using horseradish peroxidase (HRP) conjugated α-mouse IgG.

[7] = test system: DCs obtained from the spleen; experiment: Example E: phenotyping of spleen DCs after tail vein injection (CD86); type: in vivo, mice; details: 1 μg tail vein, 24 h
Experimental: In brief, in each experiment, 1 μg of one of a selection of compounds of the invention was injected into the tail vein of subject mice. 24 h later spleen tissue was removed from the animals and gently teased through gauze into complete medium, supplemented with 5 mM of EDTA. Cells were enriched for CD11c by anti-CD11, magnetic beads using published techniques. Once enriched, they were assayed for maturation markers using antibody staining and flow cytometry. Non-specific staining was addressed by using an antibody specific for the Fc-RIII/II receptor.

- Kd [1]: 3.84 µM
- koff [1]: 0.65 s⁻¹
Molecule: CCCCCCCCCCCCCCCCCCCCCCCCCC(=O)N[C@@H](COC[C@H](O)[C@@H](O)[C@@H](O)c1ccccc1)[C@H](O)[C@H](O)CCCCCCCCCCCCCC [Compound 14, 4-(S)-Phenyl Threitol Ceramide]

Molecule: Inositol Ceramide [Compound 10]
- DC maturation and cytokine production from iNKT cells (first test) (human DC; data not shown): induced detectable DC maturation and cytokine production from iNKT cells
- IFN-γ release from iNKT cells (iNKT cell clone): little or no IFN-γ and IL-4
- IL-4 release from iNKT cells (iNKT cell clone): little or no IFN-γ and IL-4

Molecule: D-myo-Inositol Ceramide [Compound 12]
- IFN-γ release from iNKT cells (iNKT cell clone): significant levels of both cytokines
- IL-4 release from iNKT cells (iNKT cell clone): significant levels of both cytokines

Molecule: CCCCCCCCCCCCCCCCCCCCCCCCCC(=O)N[C@@H](COCC(O)[C@@H](O)[C@@H](O)CO)[C@H](O)C(O)CCCCCCCCCCCCCC (stereo partly drawn) [Compound 1, Arabinitol Ceramide]
- DC maturation (upregulation of CD83, CD86 and CD38) (human DC; human DC with iNKT cell clone, 24 hours): only weakly functional
- IL-12p40 released [2]: little IL-12p40 was detected
- IFN-γ released by the iNKT cells [3]: no detectable IFNγ
- skewing of cytokine response to Th2 (IL-4 and IFN-γ; compared with OCH): Neither compound showed a skewed Th2 cytokine response
- potency of cytokine induction compared with α-GalCer (IL-4 and IFN-γ; equivalent doses): less potent than α-GalCer at equivalent doses
- cytokine release in serum (IL-4, IFN-γ, IL-12p40/70) (IL-4 and IFN-γ; wild type mice, 1 μg i.v., 2, 6 and 18-24 h): detected in the serum with a similar time-course to that seen with α-GalCer
- antigen-specific CD8+ T cell response [4]: induced a significant CD8^+ T cell response after 6 days, although less potently than α-GalCer
- tumour growth (E.G7-OVA tumour cells): little or no tumour growth
- induction of DC maturation markers (CD83, CD80, CD86, CD25, CD38) [5]: DC maturation markers are induced
- IL-12 potency, fold less potent than Compound 3 (p40 form of IL-12): approximately 1000 fold
- OVA specific response (OVA specific response): enhancement of the OVA specific response
- OVA specific antibody response, adjuvant effect compared with MPL [6]: more effective as adjuvants than MPL
- induction of CD86 on spleen DC in vivo [7]: induced CD86 in vivo similarly

- Kd [1]: 4.25 µM
- koff [1]: 0.506 s⁻¹
Molecule: CCCCCCCCCCCCCCCCCCCCCCCCCC(=O)N[C@@H](COC[C@H](O)[C@@H](O)[C@H](O)c1ccccc1)[C@H](O)[C@H](O)CCCCCCCCCCCCCC [Compound 15, 4-(R)-Phenyl Threitol Ceramide]

Molecule: D-myo-Inositol Ceramide Salt [Compound 13]
- IFN-γ release from iNKT cells (iNKT cell clone): little or no IFN-γ release
- IL-4 release from iNKT cells (iNKT cell clone): detectable IL-4 was produced when higher concentrations of the compound were used
